Measured values: patent publication US6294555A, “1-[(1-Substituted-4-piperidinyl)methyl]-4-piperidine derivative, process for producing the same, medicinal compositions containing the same and intermediates of these compounds” (Dainippon Pharmaceutical Co., Ltd., priority 1998, dated 2001)

Key:
[1] = biological target: T1, Serotonin 4 (5-HT4) Receptors (Cavia porcellus, UniProt O70528); experiment: Binding Assay on Serotonin 4 (5-HT4) Receptors ([3H]-GR113808, striatum membrane fractions); design: species or system guinea pig (Std-Hartley); conditions: 50% inhibition of specific binding of 0.1 nM [3H]-GR113808; 37° C., 30 min; test compounds are fumarates except numbers marked ** (62, 72, 74: free bases)
T1 construct: the striatum was dissected; from tissue; host or cells: guinea pig (Std-Hartley) brain striatum, membrane fractions
T1 sequence (O70528 whole entry): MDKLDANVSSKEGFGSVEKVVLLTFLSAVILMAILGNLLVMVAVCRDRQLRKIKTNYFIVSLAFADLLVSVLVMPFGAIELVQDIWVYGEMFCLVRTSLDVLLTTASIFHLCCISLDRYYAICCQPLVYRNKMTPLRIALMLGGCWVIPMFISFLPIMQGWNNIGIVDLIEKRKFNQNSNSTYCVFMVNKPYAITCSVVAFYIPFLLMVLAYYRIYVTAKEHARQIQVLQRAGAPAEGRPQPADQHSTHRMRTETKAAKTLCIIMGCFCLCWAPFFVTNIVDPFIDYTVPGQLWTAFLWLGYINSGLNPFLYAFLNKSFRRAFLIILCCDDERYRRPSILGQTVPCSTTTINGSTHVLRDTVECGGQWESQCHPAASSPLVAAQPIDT
Description: Std-Hartley guinea pigs weighing 300-400 g were decapitated, and the brain thereof was immediately taken out, and the striatum was dissected. To the tissue thus obtained was added 15-times volume of Hepes buffer (50 mM, pH7.4, 4° C.), homogenized in a Teflon homogenizer, and centrifuged at 48,000×g at 4° C. for 15 minutes. The pellet was suspended in the same Hepes buffer in a volume of 1 ml per 30 mg of the wet tissues to give receptor membrane fractions.
The reaction was terminated by rapid vacuum filtration and washing (3×4 ml) with ice-cold 50 mM Tris-HCl buffer (pH 7.7) through Whatman GF/B filter paper using a Brandel cell harvester. Prior to the filtration, the filter to be used was presoaked in a 0.1% solution of polyethylenimine for one hour. The radioactivity on the filter was determined with by ACS-II scintillation cocktail by a liquid scintillation counter.

[2] = tested on: Mice of Std-ddY strain (evacuation); experiment: Assay on Evacuation in Mice (fecal pellets, oral); assay type: in vivo, mouse (Std-ddY, male); design: key: -: Inactive; +: Moderately stimulated (P<0.05); ++: Markedly stimulated (p<0.01); conditions: 1 mg/kg oral; fecal pellets at 30, 60 and 120 minutes; Dunnett's test; fumarates except numbers marked ** (25, 86: free bases)
Description: Male mice of Std-ddY strain weighing 25-30 g were used. Free access to food and water was allowed up to the beginning of the procedure.
The mice (each group: five mice) were placed in a mesh bottom cage for fasting, and they were allowed for acclimation to new environment for about one hour prior to the start of the experiment. A test compound, which was previously suspended in the 0.5% tragacanth solution, was administered orally to the mice at a dose of 1 mg/kg. The fecal pellets were counted and collected at 30, 60 and 120 minutes after the treatment of a test compound, and weighed.
The statistical judgment of efficacy was carried out between the control group and the treated group, and determined by Dunnett's test.

Row | Compound | IC50 [1] [nM] | Effect (evacuation) [2]
1 | COc1cc(N)c(Cl)cc1C(=O)NC1CCN(CC2CCN(C(=O)NC3CCCCCC3)CC2)CC1 [Example 51] | 1.9 | –
2 | COc1ccc(C(=O)N2CCC(CN3CCC(NC(=O)c4cc(Cl)c(N)cc4OC)CC3)CC2)cc1 [Example 60] | 3.9 | –
3 | COc1cc(N)c(Cl)cc1C(=O)NC1CCN(CC2CCN(C(=O)c3ccc(Cl)cc3)CC2)CC1 [Example 73] | 4.2 | –
4 | COc1ccc(NC(=O)N2CCC(CN3CCC(NC(=O)c4cc(Cl)c(N)cc4OC)CC3)CC2)cc1 [Example 39] | 2.3 | –
5 | CCCCC(C(=O)OCC)N1CCC(CN2CCC(NC(=O)c3cc(Cl)c(N)cc3OC)CC2)CC1 (stereo not drawn) [Example 98] | 12.5 | –
6 | COc1cc(N)c(Br)cc1C(=O)NC1CCN(CC2CCN(C(=O)N3CCCC3)CC2)CC1 [Example 34, 4-amino-5-bromo-2-methoxy-N-[1-[1-(1-pyrrolidinecarbonyl)-4-piperidinylmethyl]-4-piperidinyl]benzamide] | 8.9 | ++
7 | CCOC(=O)CCCN1CCC(CN2CCC(NC(=O)c3cc(Cl)c(N)c4c3OCC4)CC2)CC1 [Example 100, 4-amino-5-chloro-N-[1-[1-(3-ethoxycarbonylpropyl)-4-piperidinylmethyl]-4-piperidinyl]-2,3-dihydrobenzo[b]furan-7-carboxamide] | 1 | –
8 | COc1cc(N)c(Cl)cc1C(=O)NC1CCN(CC2CCN(C(=O)NC3CCCC3)CC2)CC1 [Example 49] | 4.4 | –
9 | CCOC(=O)CN1CCC(CN2CCC(NC(=O)c3cc(Cl)c(N)cc3OC)CC2)CC1 [Example 90] | – | +
10 | CCC(=O)CCN1CCC(CN2CCC(NC(=O)c3cc(Cl)c(N)cc3OC)CC2)CC1 [Example 89] | 6.5 | –
11 | COc1cc(N)c(Cl)cc1C(=O)NC1CCN(CC2CCN(C(=O)N(C(C)C)C(C)C)CC2)CC1 [Example 3] | 15.5 | –
12 | COC(=O)CCCC(=O)N1CCC(CN2CCC(NC(=O)c3cc(Cl)c(N)cc3OC)CC2)CC1 [Example 69] | 18 | –
13 | CCC(=O)CN1CCC(CN2CCC(NC(=O)c3cc(Cl)c(N)cc3OC)CC2)CC1 [Example 86] | 8.3 | ++
14 | COCC(=O)N1CCC(CN2CCC(NC(=O)c3cc(Cl)c(N)cc3OC)CC2)CC1 [Example 63] | 20.7 | –
15 | Nc1c(Cl)cc(C(=O)NC2CCN(CC3CCN(C(=O)Nc4ccccc4)CC3)CC2)c2c1CCO2 [Example 52, 4-amino-5-chloro-N-[1-(1-phenylcarbamoyl-4-piperidinylmethyl)-4-piperidinyl]-2,3-dihydrobenzo[b]furan-7-carboxamide] | 0.36 | ++
16 | COc1cc(N)c(Cl)cc1C(=O)NC1CCN(CC2CCN(C(=O)Nc3ccccc3)CC2)CC1 [Example 37, 4-amino-5-chloro-2-methoxy-N-[1-(1-phenylcarbamoyl-4-piperidinylmethyl)-4-piperidinyl]benzamide] | 1.1 | ++
17 | CCCNC(=O)N1CCC(CN2CCC(NC(=O)c3cc(Cl)c(N)cc3OC)CC2)CC1 [Example 42] | 6.4 | –
18 | COc1cc(N)c(Cl)cc1C(=O)NC1CCN(CC2CCN(C(=O)c3cc(OC)c(OC)c(OC)c3)CC2)CC1 [Example 74] | 9 | –
19 | CCN(CC)C(=S)N1CCC(CN2CCC(NC(=O)c3cc(Cl)c(N)cc3OC)CC2)CC1 [Example 11] | 6.8 | –
20 | COc1cc(N)c(Cl)cc1C(=O)NC1CCN(CC2CCN(C(=O)c3ccc(C)cc3)CC2)CC1 [Example 61] | 4.6 | –
21 | CC(C)Oc1cc(N)c(Cl)cc1C(=O)NC1CCN(CC2CCN(C(=O)N(C)C)CC2)CC1 [Example 30, 4-amino-5-chloro-N-[1-(1-dimethylcarbamoyl-4-piperidinylmethyl)-4-piperidinyl]-2-isopropoxybenzamide] | 4.3 | ++
22 | COCCC(=O)N1CCC(CN2CCC(NC(=O)c3cc(Cl)c(N)cc3OC)CC2)CC1 [Example 64] | – | +
23 | COc1cc(N)c(Cl)cc1C(=O)NC1CCN(CC2CCN(S(=O)(=O)N(C)C)CC2)CC1 [Example 16] | 14.2 | –
24 | CCN(CC)C(=O)N1CCC(CN2CCC(NC(=O)c3cc(Cl)c(N)cc3OC)CC2)CC1 [Example 2] | 11.9 | +

Row | Compound | IC50 [1] [nM] | Effect (evacuation) [2]
25 | COc1cc(N)c(Cl)cc1C(=O)NC1CCN(CC2CCN(C(N)=O)CC2)CC1 [Example 53, 4-amino-N-[1-(1-carbamoyl-4-piperidinylmethyl)-4-piperidinyl]-5-chloro-2-methoxybenzamide] | 9.8 | –
26 | COc1cc(N)c(Cl)cc1C(=O)NC1CCN(CC2CCN(C=O)CC2)CC1 [Example 79, 4-amino-5-chloro-N-[1-(1-formyl-4-piperidinylmethyl) -4-piperidinyl]-2-methoxybenzamide] | – | +
27 | COc1cc(N)c(Cl)cc1C(=O)NC1CCN(CC2CCN(CC(=O)C(C)(C)C)CC2)CC1 [Example 87] | 11.9 | –
28 | COc1cc(N)c(Cl)cc1C(=O)NC1CCN(CC2CCN(CC(C)=O)CC2)CC1 [Example 85] | 18.2 | –
29 | COc1cc(N)c(Cl)cc1C(=O)NC1CCN(CC2CCN(C(=O)Nc3ccc(C)cc3)CC2)CC1 [Example 40] | 1.7 | –
30 | CCOc1cc(N)c(Cl)cc1C(=O)NC1CCN(CC2CCN(C(=S)N(C)C)CC2)CC1 [Example 33, 4-Amino-5-chloro-N-[1-(1-dimethylthiocarbamoyl-4-piperidinylmethyl)-4-piperidinyl]-2-ethoxybenzamide] | 2.3 | –
31 | COc1cc(N)c(Cl)cc1C(=O)NC1CCN(CC2CCN(C(=O)N(C)c3ccccc3)CC2)CC1 [Example 8, 4-amino-5-chloro-2-methoxy-N-[1-[1-(N-methyl-N-phenylcarbamoyl)-4-piperidinylmethyl]-4-piperidinyl]benzamide] | 6.3 | ++
32 | CCOC(=O)N1CCC(CN2CCC(NC(=O)c3cc(Cl)c(N)cc3OC)CC2)CC1 [Example 77] | – | ++
33 | CCOc1cc(N)c(Cl)cc1C(=O)NC1CCN(CC2CCN(C(=O)N(CC)CC)CC2)CC1 [Example 27, 4-amino-5-chloro-N-[1-(1-diethylcarbamoyl-4-piperidinylmethyl)-4-piperidinyl]-2-ethoxybenzamide] | 4.4 | ++
34 | CCC(=O)CN1CCC(CN2CCC(NC(=O)c3cc(Cl)c(N)c4c3OCC4)CC2)CC1 [Example 99, 4-amino-N-[1-[1-(2-butanon-1-yl)-4-piperidinylmethyl]-4-piperidinyl]-5-chloro-2,3-dihydrobenzo[b]furan-7-carboxamide] | 3.9 | –
35 | COc1cc(N)c(Cl)cc1C(=O)NC1CCN(CC2CCN(C(=O)c3cc(Cl)c(N)cc3OC)CC2)CC1 [Example 62] | 1.4 | –
36 | COc1cc(N)c(Cl)cc1C(=O)NC1CCN(CC2CCN(C(=O)NCc3ccccc3)CC2)CC1 [Example 47] | 1.6 | –
37 | COc1cc(N)c(Cl)cc1C(=O)NC1CCN(CC2CCN(C(C)=O)CC2)CC1 [Example 75] | – | ++
38 | COC(=O)N1CCC(CN2CCC(NC(=O)c3cc(Cl)c(N)cc3OC)CC2)CC1 [Example 76] | – | ++
39 | COc1cc(N)c(Cl)cc1C(=O)NC1CCN(CC2CCN(C(=O)c3ccccc3)CC2)CC1 [Example 72, 4-amino-N-[1-(1-benzoyl-4-piperidinylmethyl)-4-piperidinyl]-5-chloro-2-methoxybenzamide] | 6.8 | –
40 | CCOc1cc(N)c(Cl)cc1C(=O)NC1CCN(CC2CCN(C(=O)N3CCCC3)CC2)CC1 [Example 32] | 3.2 | +
41 | CCOc1cc(N)c(Cl)cc1C(=O)NC1CCN(CC2CCN(C(=O)CCOC)CC2)CC1 [Example 81, 4-amino-5-chloro-2-ethoxy-N-[1-[1-(3-methoxypropionyl)-4-piperidinylmethyl]-4-piperidinyl]benzamide] | 7.7 | ++
42 | COc1cc(N)c(Cl)cc1C(=O)NC1CCN(CC2CCN(CCCC(C)=O)CC2)CC1 [Example 88] | 7.2 | –
43 | COc1cc(N)c(Cl)cc1C(=O)NC1CCN(CC2CCN(C(=O)N3CCOCC3)CC2)CC1 [Example 13] | 19.1 | –
44 | COc1cc(N)c(Cl)cc1C(=O)NC1CCN(CC2CCN(C(=O)Nc3ccc(Cl)cc3)CC2)CC1 [Example 38] | 1.6 | –
45 | CCOC(=O)CCCN1CCC(CN2CCC(NC(=O)c3cc(Cl)c(N)cc3OC)CC2)CC1 [Example 92] | 4.1 | –
46 | CCCN(C)C(=O)N1CCC(CN2CCC(NC(=O)c3cc(Cl)c(N)cc3OC)CC2)CC1 [Example 5] | 7.6 | –
47 | COc1cc(N)c(Cl)cc1C(=O)NC1CCN(CC2CCN(C(C)C(C)=O)CC2)CC1 (stereo not drawn) [Example 84, 4-amino-N-[1-[1-(2-butanon-3-yl)-4-piperidinylmethyl]-4-piperidinyl]-5-chloro-2-methoxybenzamide] | 14.2 | –
